Measurements reported in PMC2785468, “Androgen Receptor Mutations Associated with Androgen Insensitivity Syndrome: A High Content Analysis Approach Leading to Personalized Medicine” (PLoS ONE, 2009).

Biological target: T1, wild type AR (Homo sapiens, UniProt P10275)
T1 construct: expressed in transfected cells
T1 sequence (P10275 1-920): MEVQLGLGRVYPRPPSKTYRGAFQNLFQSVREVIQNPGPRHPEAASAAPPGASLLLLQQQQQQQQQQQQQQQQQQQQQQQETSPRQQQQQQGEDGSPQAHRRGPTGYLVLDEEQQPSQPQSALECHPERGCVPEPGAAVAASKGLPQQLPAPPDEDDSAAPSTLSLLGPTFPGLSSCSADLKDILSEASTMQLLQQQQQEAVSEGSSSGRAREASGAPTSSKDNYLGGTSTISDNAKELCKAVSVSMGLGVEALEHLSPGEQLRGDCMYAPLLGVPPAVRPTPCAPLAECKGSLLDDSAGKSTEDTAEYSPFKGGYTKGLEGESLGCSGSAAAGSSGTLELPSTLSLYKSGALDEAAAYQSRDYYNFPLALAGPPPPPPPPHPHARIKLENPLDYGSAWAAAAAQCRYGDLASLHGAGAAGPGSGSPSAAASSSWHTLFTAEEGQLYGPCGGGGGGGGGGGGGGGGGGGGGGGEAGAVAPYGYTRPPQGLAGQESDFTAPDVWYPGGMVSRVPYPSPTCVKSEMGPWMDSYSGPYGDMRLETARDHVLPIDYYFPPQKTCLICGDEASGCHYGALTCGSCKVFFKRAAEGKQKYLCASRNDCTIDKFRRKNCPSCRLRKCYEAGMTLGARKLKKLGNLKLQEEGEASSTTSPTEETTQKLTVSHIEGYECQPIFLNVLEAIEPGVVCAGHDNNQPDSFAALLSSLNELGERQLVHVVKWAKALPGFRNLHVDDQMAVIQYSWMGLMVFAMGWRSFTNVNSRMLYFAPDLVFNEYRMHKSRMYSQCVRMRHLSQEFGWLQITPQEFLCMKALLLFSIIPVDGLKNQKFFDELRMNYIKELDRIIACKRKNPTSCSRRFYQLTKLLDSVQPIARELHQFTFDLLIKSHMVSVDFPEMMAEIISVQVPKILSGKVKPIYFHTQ
Type: cell-based
Method: To determine the global effect of the various AIS mutations on AR signaling, each was analyzed using HCA. This technology allows simultaneous quantification of AR protein expression, nuclear translocation, subnuclear patterning, and transcriptional activity. The analysis was done in HeLa cell lines stably transfected with wild type or mutant ARs fused with green fluorescent protein, or using AR immunofluorescence in primary cultures of genital skin fibroblasts generated from foreskin biopsies of historical AIS patients, or of normal neonates undergoing circumcision at birth. To prevent the effects of receptor over-expression, stable HeLa cells were carefully selected to express AR levels similar to LNCaP as previously described. Prior to ligand treatment, HeLa cells were transfected with the pARR2PB-dsRED2skl reporter plasmid, consisting of the AR responsive promoter ARR2PB [31] driving expression of the red fluorescent protein reporter dsRED2skl engineered to target peroxisomes.
For studies utilizing HeLa GFP-AR cell lines, twenty-four hours before transfection with pARR2PB-dsRED2skl, cells were plated onto 100 mm plastic dishes in medium supplemented with 5% charcoal-stripped and dialyzed-FBS. Transient introduction of the pARR-2PB-dsRED2skl reporter construct was performed using 6.0 µg reporter plasmid and 6.0 µg carrier DNA (BlueScript, Stratagene, San Diego, CA) using Transfectin (Biorad) following standard protocols. After 8-hour incubation, DNA/lipid complexes were removed. Cells were then trypsinized and replated at 10,000 cells per well in Nunc poly-D-lysine treated 96-well optical glass bottom plates and incubated an additional 12 hours to allow for cell adhesion. […] Compound dilutions and final addition to multi-well plates were performed using a Beckman Biomek NX robotic platform to ensure repeatability from experiment to experiment. After incubation was complete, using the Biomek NX robot, plates were washed with PBS and fixed for 20 min at RT in 4% formaldehyde prepared in CSK buffer (80 mM potassium PIPES, pH 6.8, 5 mM EGTA, 2 mM MgCl2). After fixation, cells were briefly permeabilized (5 min) with 0.5% Triton-X and prepared for imaging by washing in PBS, aspirating the washed solution, and adding a 1 ng/ml DAPI solution to stain DNA and a generic protein stain (CellMask, Invitrogen) to facilitate cell and nuclear image segmentation. Cells were imaged in PBS.
Cells were imaged using the Cell Lab IC-100 Image Cytometer (IC-100; Beckman Coulter) platform that consists of 1) Nikon Eclipse TE2000-U Inverted Microscope (Nikon; Melville, NY); 2) Chroma 82000 triple band filter set (Chroma; Brattleboro, VT); 3) an imaging camera: Hamamatsu ORCA-ER Digital CCD camera (Hamamatsu; Bridgewater, NJ); and 4) a focusing camera: Photonics COHU Progressive scan camera (Photonics; Oxford, MA). […] In general, 49 to 64 images were captured per well for image analysis.
Initially, the background signal was removed from all images using plate- and channel-specific correction images, generated by the sum projection of >600 randomly selected images for each channel from the image set. This allows for a pixel-by-pixel background subtraction that compensates any consistent uneven background artifacts in the image set. Furthermore, users are able to customize the degree of background subtraction by applying a multiplier to each correction image, useful for identification of objects such as nuclei or cell borders. […]

Compound: C[C@@H]1CC2=CC(=O)CC[C@@H]2[C@H]2CC[C@@]3(C)[C@@H](CC[C@]3(C)O)[C@@H]21 [Mb, Mibolerone]
- Percent Signal in Nucleus, Max (HeLa Wild Type, % signal present in the nucleus, Mean±S.E.M.): 80.5±1.9%
- Hyperspeckling, Max (HeLa Wild Type, absolute numerical measurement): 1101±61
- Transcriptional Activity, Max (HeLa Wild Type, pARR2PB-dsRED2skl reporter, absolute numerical measurement): 113±1.4
- increase in the percent of the GFP signal in the nucleus (HeLa wild type GFP-AR, vs untreated): approximately 30%
- factor between EC50 for nuclear translocation and EC50 for hyperspeckling and transcriptional activity (HeLa-AR cells, 1440 min): approximately 30 fold
